Experimental data from patent US20240299412A1, “DRUG FORMULATIONS OF 4-(3,3-DIFLUORO-2,2-DIMETHYL-PROPANOYL) -3,5-DIHYDRO-2H-PYRIDO[3,4-f][1,4]OXAZEPINE-9-CARBONITRILE” (Genzyme Corporation, priority 2023, published 2024).

Experiments:
Format in all cases: physicochemical
[1] = Solid form screening; conditions: 96 solid form screening experiments
Protocol: A total of 96 solid form screening experiments were performed using different crystallization or solid transformation methods.

[2] = pKa measurement (Sirius T3, UV metric method); conditions: MeOH as solvent, Yasuda-Shedlovsky extrapolation, ionic strength 0.176M, 28.9° C., to be taken as reference (effective range pH 2-12)
Protocol: pKa. The pKa was measured by a Sirius pKa log P/D tester (model: T3) with a UV detector (UV metric method) using MeOH as solvent.
In addition, the pKa value of Compound (1) starting material was measured to be 1.68 by a Sirius pKa log P/D tester (model: T3) with a UV detector (UV metric method) using MeOH as solvent. The pKa value should be taken as reference because the effective pH range of UV metric method is pH 2-12.

[3] = Cohesion evaluation
Description: Different options were explored to improve the cohesion property of the tablet, for example, by change of lactose and mannitol grades (standard grade in place of Spray Dried grade), using anhydrous lactose in place of monohydrate lactose Spray-Dried, using different ratios of lactose/mannitol, or using pregelatinized corn starch instead of mannitol, but only a decrease of tablet cohesion was observed.

## CC(C)(C(=O)N1CCOc2c(C#N)cncc2C1)C(F)F [Compound 1, 4-(3,3-difluoro-2,2-dimethyl-propanoyl)-3,5-dihydro-2H-pyrido[3,4-f][1,4]oxazepine-9-carbonitrile]
[1]
  crystal forms observed from screening: Only one crystal form
[2]
  pKa: 1.68
[3]
  cohesion property of the drug substance: very low cohesion property
